Source: patent publication US8940897B2, “1,3,4-oxadiazole and 1,3,4-thiadiazole β-lactamase inhibitors” (priority 2012, dated 2015)
Where a name gives a salt, the structure may show the parent alone.

Legend:
[1] = test system: bacterial strains that express the class D cephalosporinase OXA-15; experiment: Synergy MIC / standard BLI potentiation MIC assay, strains expressing OXA-15;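 note: more active means a lower MIC or sMIC than Avibactam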; format: cell-based, E. coli; details: in the presence of a β-lactam; comparator Avibactam (CCC)
In short: (§1)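 CLSI broth microdilution in CAMHB, ~10^5 CFU/mL, 18–20 h at 37 °C with aeration; engineered E. coli kept on 25 μg/mL tetracycline. Potentiation: β-lactam 128–0.13 μg/mL with BLI fixed at 4 μg/mL; synergy MIC: BLI serially diluted with fixed β-lactam. MIC is the lowest concentration without visible turbidity.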

[2] = test system: bacterial strains that express KPC β-lactamases; experiment: Synergy MIC / standard BLI potentiation MIC assay, strains expressing KPC β-lactamases; format: cell-based; details: for at least one KPC strain and/or a better spectrum of activity against KPC strains than Avibactam; in the presence of a β-lactam
In short: as §1

SMILES | activity against bacterial strains that express OXA-15 β-lactamase compared with Avibactam [1] | activity against bacterial strains that express KPC β-lactamase compared with Avibactam [2]
N[C@H]1CC[C@@H](c2nnc([C@@H]3CC[C@@H]4CN3C(=O)N4OS(=O)(=O)O)o2)C1 [Compound 768, (2S,5R)-2-(5-((1R,3S)-3-aminocyclopentyl)-1,3,4-oxadiazol-2-yl)-7-oxo-1,6-diazabicyclo[3.2.1]octan-6-yl hydrogen sulfate] | more active than Avibactam | more active than Avibactam
O=C1N2C[C@@H](CC[C@H]2c2nnc(CCNC3CCNCC3)o2)N1OS(=O)(=O)O [Compound 770, (2S,5R)-7-oxo-2-(5-(2-(piperidin-4-ylamino)ethyl)-1,3,4-oxadiazol-2-yl)-1,6-diazabicyclo[3.2.1]octan-6-yl hydrogen sulfate] | more active than Avibactam | more active than Avibactam
O=C1N2C[C@@H](CC[C@H]2c2nnc(CCCNC3CCNCC3)o2)N1OS(=O)(=O)O [Compound 771, (2S,5R)-7-oxo-2-(5-(3-(piperidin-4-ylamino)propyl)-1,3,4-oxadiazol-2-yl)-1,6-diazabicyclo[3.2.1]octan-6-yl hydrogen sulfate] | more active than Avibactam | more active than Avibactam
O=C1N2C[C@@H](CC[C@H]2c2nnc(CCCCNC3CCNCC3)o2)N1OS(=O)(=O)O [Compound 772, (2S,5R)-7-oxo-2-(5-(4-(piperidin-4-ylamino)butyl)-1,3,4-oxadiazol-2-yl)-1,6-diazabicyclo[3.2.1]octan-6-yl hydrogen sulfate] | more active than Avibactam | more active than Avibactam
NC1CCN(Cc2nnc([C@@H]3CC[C@@H]4CN3C(=O)N4OS(=O)(=O)O)o2)CC1 [Compound 774, (2S,5R)-2-(5-((4-aminopiperidin-1-yl)methyl)-1,3,4-oxadiazol-2-yl)-7-oxo-1,6-diazabicyclo[3.2.1]octan-6-yl hydrogen sulfate] | more active than Avibactam | more active than Avibactam
O=C1N2C[C@@H](CC[C@H]2c2nnc(CCN3CCNCC3)o2)N1OS(=O)(=O)O [Compound 776, (2S,5R)-7-oxo-2-(5-(2-(piperazin-1-yl)ethyl)-1,3,4-oxadiazol-2-yl)-1,6-diazabicyclo[3.2.1]octan-6-yl hydrogen sulfate] | more active than Avibactam | more active than Avibactam
O=C1N2C[C@@H](CC[C@H]2c2nnc(CN3CCNCC3)o2)N1OS(=O)(=O)O [Compound 777, (2S,5R)-7-oxo-2-(5-(piperazin-1-ylmethyl)-1,3,4-oxadiazol-2-yl)-1,6-diazabicyclo[3.2.1]octan-6-yl hydrogen sulfate] | more active than Avibactam | more active than Avibactam
O=C1N2C[C@@H](CC[C@H]2c2nnc([C@H]3CNCCN3)o2)N1OS(=O)(=O)O [Compound 779, (2S,5R)-7-oxo-2-(5-((R)-piperazin-2-yl)-1,3,4-oxadiazol-2-yl)-1,6-diazabicyclo[3.2.1]octan-6-yl hydrogen sulfate] | more active than Avibactam | more active than Avibactam
N[C@H]1C[C@H](c2nnc([C@@H]3CC[C@@H]4CN3C(=O)N4OS(=O)(=O)O)s2)C1 [Compound 783, (2S,5R)-2-(5-((1r,3S)-3-aminocyclobutyl)-1,3,4-thiadiazol-2-yl)-7-oxo-1,6-diazabicyclo[3.2.1]octan-6-yl hydrogen sulfate] | more active than Avibactam | more active than Avibactam
N=C(N)N[C@H]1C[C@@H](c2nnc([C@@H]3CC[C@@H]4CN3C(=O)N4OS(=O)(=O)O)s2)C1 [Compound 784, (2S,5R)-2-(5-((1s,3R)-3-guanidinocyclobutyl)-1,3,4-thiadiazol-2-yl)-7-oxo-1,6-diazabicyclo[3.2.1]octan-6-yl hydrogen sulfate] | more active than Avibactam | more active than Avibactam
N=C(N)NCCc1nnc([C@@H]2CC[C@@H]3CN2C(=O)N3OS(=O)(=O)O)s1 [Compound 794, (2S,5R)-2-(5-(2-guanidinoethyl)-1,3,4-thiadiazol-2-yl)-7-oxo-1,6-diazabicyclo[3.2.1]octan-6-yl hydrogen sulfate] | more active than Avibactam | more active than Avibactam
N[C@H]1C[C@@H](c2nnc([C@@H]3CC[C@@H]4CN3C(=O)N4OS(=O)(=O)O)s2)C1 [Compound 795, (2S,5R)-2-(5-((1s,3R)-3-aminocyclobutyl)-1,3,4-thiadiazol-2-yl)-7-oxo-1,6-diazabicyclo[3.2.1]octan-6-yl hydrogen sulfate] | more active than Avibactam | more active than Avibactam
